Experimental data taken from US4156731A, “Heterocyclic oxime compounds and carbamoyloxime derivatives” (priority 1976, dated 1979).

Assays:
Type in all cases: in vivo
Set-up in all cases: key: A: Excellent control; B: Partial control; C: No control
[1] = test system: Mexican bean beetle (Epilachna varivestis, Muls.); assay: Mexican Bean Beetle Leaf Spray Test; conditions: fourth instar larvae, 500 ppm leaf spray, three days
Protocol: (§1) Selected species of the new compounds were evaluated to determine their pesticidal activity against mites and certain insects, including anaphid, a caterpillar, a beetle and a fly.
(§2) Suspensions of the test compounds were prepared by dissolving one gram of compound in 50 milliliters of acetone in which had been dissolved 0.1 gram (10 percent of the weight of compound) of an alkylphenoxy polyethoxyethanol surfactant, as an emulsifying or dispersing agent. The resulting solution was mixed into 150 milliliters of water to give roughly 200 milliliters of a suspension containing the compound in finely divided form. The thus-prepared stock suspension contained 0.5 percent by weight of test compound. The test concentrations in parts per million by weight employed in the tests described hereinbelow were obtained by appropriate dilutions of the stock suspension with water. The test procedures were as follows:
Mexican Bean Beetle Leaf Spray Test
Fourth instar larvae of the Mexican bean beetle (Epilachna varivestis, Muls.), reared on Tendergreen bean plants at a temperature of 80°±5° F. and 50±5 per cent relative humidity, were the test insects.
The test compounds were formulated by diluting the stock suspension with water to give a suspension containing 500 parts of test compound per million parts of final formulation. Potted Tendergreen bean plants of standard height and age were placed on a revolving turntable and sprayed with 100-110 milliliters of test compound formulation by use of DeVilbiss spray gun set at 10 psig air pressure. This application, which lasted 25 seconds, was sufficient to wet plants to run-off. As a control, 100-110 milliliters of a water-acetone-emulsifier solution containing no test compound were also sprayed on infested plants. When dry, the paired leaves were separated and each was placed in a 9 centimeter Petri dish lined with moistened filter paper. Five randomly selected larvae were introduced into each dish, and the dishes were closed. The closed dishes were labeled and held at a temperature of […]. for three days. Although the larvae could easily consume the leaf within 24 to 48 hours, no more food was added. Larvae which were unable to move the length of the body, even upon stimulation, were considered dead.
(§3) In these tests the pesticidal activity of the compounds against aphid, mite, Southern Armyworm, Mexican Bean Beetle, and house fly was rated as follows: […]

[2] = test system: bean aphid (Aphis fabae Scop.); assay: Bean Aphid Foliage Spray Test; conditions: 500 ppm foliage spray, 24 hour holding period
Protocol: as §1, §2
Bean Aphid Foliage Spray Test
Adults and nymphal stages of the bean aphid (Aphis fabae Scop.) reared on potted dwarf nasturtium plants at 65°-70° F. and 50-70 per cent relative humidity, constituted the test insects. For testing purposes, the number of aphids per pot was standardized to 100-150 by trimming plants containing excess aphids.
The test compounds were formulated by diluting the stock suspension with water to give a suspension containing 500 parts of test compound per million parts of final formulation.
The potted plants (one pot per compound tested) infested with 100-150 aphids, were placed on a revolving turntable and sprayed with 100-110 milliliters of test compound formulation by use of a DeVilbiss spray gun set at 40 psig. air pressure. This application, which lasted 25 seconds, was sufficient to wet the plants to run-off. As a control, 100-110 milliliters of a water-acetone-emulsifier solution containing no test compound were also sprayed on infested plants. After spraying, the pots were placed on their sides on a sheet of white standard mimeograph paper which had been previously ruled to facilitate counting. Temperature and humidity in the test room during the 24 hour holding period were 65°-70° F. and 50-70 per cent, respectively. Aphids which fell into the paper and were unable to remain standing after being uprighted were considered dead. Aphids remaining on the plants wre observed closely for movement and those which were unable to move the length of the body upon stimulator by prodding were considered dead. Per cent mortality was recorded for various concentration levels.
as §3

[3] = test system: two spotted mite (Tetranychus urticae Koch); assay: Mite Foliage Spray Test; conditions: 500 ppm foliage spray, six days
Protocol: as §1, §2
Adults and nymphal stages of the two spotted mite (Tetranychus urticae Koch), reared on Tendergreen bean plants at 80±5 per cent relative humidity, were the test organisms. Infested leaves from a stock culture were placed on the primary leaves of two bean plants six to eight inches in height, growing in a two-and-a-half inch clay pot. 150-200 mites, a sufficient number for testing, transferred from the excised leaves to the fresh plants in a period of twenty four hours. Following the twenty four hour transfer period, the excised leaves were removed from the infested plants. The test compounds were formulated by diluting the stock suspension with water to give a suspension with water to give a suspension containing 500 parts of test compound per million parts of final formulation. The potted plants (one pot per compound) were placed on a revolving turntable and sprayed with 100-110 milliliters of test compound formulation by use of a DeVilbiss spray gun set at 40 psig. air pressure. This application, which lasted for 25 seconds, was sufficient to wet the plants to run-off. As a control, 100-110 milliliters of a water solution containing acetone and emulsifier in the same concentrations as the test compound formulation, but containing no test compound, were also sprayed on infested plants. The sprayed plants were held at 80±5 per cent relative humidity for six days, after which a mortality count of motile forms were made. Microscopic examination for motile forms was made on the leaves of the test plants. Any individual which was capable of locomotion upon prodding, was considered living.
as §3

[4] = test system: house flies (Musca domestica, L.); assay: Fly Bait Test; conditions: adults, 500 ppm in sugar bait, twenty four hours
Protocol: as §1, §2
Four to six day old adult house flies (Musca domestica, L.) reared according to the specifications of the Chemical Specialities Manufacturing Association (Blue Book, McNair-Dorland Co., NY., 1954; pages 234-244, 261) under controlled conditions of 80°±5° F. and 50±5 per cent relative humidity, were the test insects. The flies were immobilized by anesthetizing with carbon dioxide and twenty five immobilized individuals, males and females, were transferred to a cage consisting of a standard food stainer about five inches in diameter which was inverted over a wrapping-paper-covered surface. The test compounds were formulated by diluting the stock suspension with a 10 per cent (by weight) sugar solution to give a suspension containing 500 parts of test compound per million parts of final formulation, by weight. Ten milliliters of the test formulation were added to a souffle cup containing a one inch square of an absorbent cotton pad. This bait cup was introduced and centered on the blotting paper under the food strainer prior to admitting the anesthetized flies. The caged flies were allowed to feed on the bait for twenty four hours, at a temperature of 80°±5° F. and the relative humidity of 50±5 per cent.
as §3

[5] = test system: southern armyworm (Prodenia Eridania, (Cram.)); assay: Southern Armyworm Leaf Spray Test; conditions: larvae, 500 ppm leaf spray, three days
Protocol: as §1, §2
Southern Armyworm Leaf Spray Test
Larvae of the southern armyworm (Prodenia Eridania, (Cram.), reared on Tendergreen bean plants at a temperature of 80°±5° F. and a relative humidity of 50±5 per cent, constituted the test insects.
The test compounds were formulated by diluting the stock suspension with water to give a suspension containing 500 parts of test compound per million parts of final formulation. Potted Tendergreen bean plants of standard height and age were placed on a revolving turntable and sprayed with […] of test compound formulation by use of a DeVilbiss spray gun set at 10 psig. air pressure.
This application, which lasted 25 seconds, was sufficient to wet plants to run-off. As a control, 100-110 milliliters of a water-acetone-emulsifier solution containing no test compound were also sprayed on infested plants. When dry, the paired leaves were separated and each one was placed in a 9 centimeter Petric dish lined with moistened filter paper. Five randomly selected larvae were introduced into each dish and the dishes were closed. The closed dishes were labeled and held at 80°-85° F. for three days. Although the larvae could easily consume the whole leaf within twenty-four hours, no more food was added. Larvae which were unable to move the length of the body, even upon stimulation by prodding, were considered dead. Per cent mortality was recorded for various concentration levels.
as §3

SMILES | Mexican Bean Beetle pesticidal activity rating [1] | Bean Aphid pesticidal activity rating [2] | Mite pesticidal activity rating [3] | House-Fly pesticidal activity rating [4] | Southern Armyworm pesticidal activity rating [5]
CCCCN=C1SC(=NOC(=O)N(C)SC(Cl)(Cl)Cl)C(C)(C)S1 [LIII] | A | A | A | A | C
CCCCN=C1SC(=NOC(=O)NC)C(C)(C)S1 [LII] | A | A | C | A | B
CNC(=O)ON=C1SC(=NC2CCCCC2)SC1(C)C [LIV] | B | A | B | A | C
CNC(=O)ON=C1SC(=NS(=O)(=O)c2ccc(C)cc2)SC1(C)C [LIX] | C | C | C | C | C
CN(SC(Cl)(Cl)Cl)C(=O)ON=C1SC(=NC(C)(C)C)SC1(C)C [LI] | A | A | B | A | C
CN(SC(Cl)(Cl)Cl)C(=O)ON=C1SC(=NS(C)(=O)=O)SC1(C)C [LVIII] | B | C | C | B | C
CNC(=O)ON=C1SC(=NS(C)(=O)=O)SC1(C)C [LVII] | B | B | C | B | B
CN(C)N=C1SC(=NOC(=O)N(C)SC(Cl)(Cl)Cl)C(C)(C)S1 [LVI] | A | A | A | A | A
CNC(=O)ON=C1SC(=C(C#N)C#N)SC1(C)C [LXII] | C | C | C | C | C
CN(SSC(C)(C)C)C(=O)ON=C1SC(=C(C#N)C#N)SC1(C)C [LXIV] | A | A | C | B | B
CNC(=O)ON=C1SC(=NC#N)SC1(C)C [LXIX] | C | C | C | C | C
CCOC(=O)C(C#N)=C1SC(=NOC(=O)NC)C(C)(C)S1 [LXI] | A | C | C | C | C
CNC(=O)ON=C1SC(=CC(C)=O)SC1(C)C [LXVIII] | A | A | C | A | A
CNC(=O)ON=C1SC(=C[N+](=O)[O-])SC1(C)C [LXVII] | A | B | C | A | A
CNC(=O)ON=C1SC(=C(C#N)c2ccccc2)SC1(C)C [LXVI] | B | C | C | C | C
CCOC(=O)C(C#N)=C1SC(=NOC(=O)N(C)SC(Cl)(Cl)Cl)C(C)(C)S1 [LXV] | A | B | C | A | C
CN(Sc1ccc(C(C)(C)C)cc1)C(=O)ON=C1SC(=C(C#N)C#N)SC1(C)C [LXXIII] | A | A | B | C | C
CN(SSc1ccc(C(C)(C)C)cc1)C(=O)ON=C1SC(=C(C#N)C#N)SC1(C)C [LXXII] | A | A | C | C | C
